Source: patent US20210069082A1, “SPIROKETALS AND USES THEREOF” (Memorial Sloan-Kettering Cancer Center, priority 2017, published 2021)
Read-outs that look alike come from different tables or passages of the source. Values belong to the molecule of their own block, whether it stands above or below them.

Tests used:
[1] = tested on: rat mesangial cells; assay: DCFDA assay of ROS levels upon exogenous H2O2 treatment; assay type: cell-based; details: 200 μM H2O2, rat mesangial cells
Description: Dichlorofluorescin diacetate (DCFDA) assay measured ROS levels upon treatment with 200 μM H2O2.
DCFDA assay measured ROS levels upon treatment with 200 μM H2O2.

[2] = tested on: rat mesangial cells; assay: Inhibition of high glucose-induced ROS production in rat mesangial cells (DCFH-DA fluorescence); assay type: cell-based; details: for Concentration required for complete inhibition (ROS production reduced to normal levels): high glucose-induced ROS, rat mesangial cells; for IC50: 3 h, DCFH-DA 50 μM, mean of three experiments, s.d. of log IC50 in brackets; for Antioxidant activity against hyperglycemia-induced ROS generation (in words): concomitant treatment with compound plus high glucose for 3 h, DCFDA assay
Description: The inhibitory effects of the pyrrolomorpholine spiroketals on high glucose-induced oxidative stress were evaluated in rat mesangial cells (RMC). The rat mesangial cells, obtained from the American Type Culture Collection (CRL-2573), were cultured at 37° C. in Dulbecco's modified Eagle's medium (DMEM) containing 5.6 mM glucose (normal glucose), 10% fetal calf serum (FCS), nonessential amino acids, penicillin/streptomycin under a humidified atmosphere of 95% air and 5% CO2. Rat mesangial cells were seeded in 96-well plates approximately 24 hours before the start of all experiments. For more details on the antioxidant activity assays, see, e.g., Wang et al. Free Radical Biol. Med. 1999, 27, 612-616; Magalhães et al. Anal. Chim. Acta. 2008, 613, 1-19; Peng et al. Org. Lett. 2010, 12, 4932-4935; Hung et al. Am. J. Nephrol. 2009, 29, 192-202.
For each experiment, rat mesangial cells were incubated with pyrrolomorpholine spiroketal compound (0.01, 0.03, 0.1, 0.3, 1, 3, 10, 30, 100, 200 μM) or 1 mM N-acetyl cysteine (NAC, positive control) in the presence of either 5.6 mM (normal glucose, NG) or 30 mM (high glucose, HG) D-glucose for 3 h. RMC were then incubated with 50 μM dichloro-dihydro-fluorescein diacetate (DCFH-DA) for 45 min, and intracellular production of ROS was detected by 2′,7′-dichlorofluorescein (DCF) fluorescence (485 nm excitation, 530 emission) as measured by a microplate reader (SpectraMax M5/M5, Molecular Devices). Values are expressed as percentage of ROS inhibition, where fluorescence from untreated cells under normal glucose conditions was set at 0% and untreated cells under high glucose conditions was set at 100%.

[3] = tested on: rat mesangial cells; details: cited from earlier work; for Antioxidant activity as reported (in words): high glucose-induced ROS, rat mesangial cells, literature
[4] = cyclic voltametry, Aponick and coworkers; cited from earlier work
[5] = Chemical reactivity towards reactive oxygen and nitrogen species; assay type: physicochemical; details: equimolar concentrations
[6] = tested on: mesangial cells; details: through inhibition of NADPH oxidase, literature; cited from earlier work
[7] = Rattus norvegicus, Mesangial cell, compound 0-200 μM, high (30 mM) glucose, N-acetyl-cysteine at 1 mM, ***p ≤ 0.001, read-out: Maximum % ROS Inhibition

SMILES: OC[C@H]1O[C@@]2(Cc3ccccc3CO2)C[C@@H]1O (single isomer, unassigned) [desformylbenzene 7]
Block of the direct effect of exogenous H2O2 on ROS levels [1]: does not block | inhibition [2, 7]: 100% | Concentration required for complete inhibition (ROS production reduced to normal levels) [2]: 5 µM

IC50 ([2]; Rattus norvegicus, Mesangial cell, compound 0-200 μM, high (30 mM) glucose): > 200 µM
SMILES: O=CC[C@H](O)[C@H](O)CO [2-deoxy-D-ribose]

SMILES: O=Cc1ccc2n1C[C@@]1(OC2)O[C@H](CO)[C@@H](O)[C@@H]1O.c1ccccc1 [Acortatarin B, acortatarin B]
Antioxidant activity as reported (in words) [3]: significantly attenuating high glucose-induced generation of ROS

SMILES: O=Cc1ccc2n1CC1(CC(O)C(CO)O1)OC2 [L-acortatarin A]
Antioxidant activity against hyperglycemia-induced ROS generation (in words) [2]: inactive

SMILES: CC(=O)N[C@@H](CS)C(=O)O [N-acetyl-cysteine]
inhibition at 1000 µM [2, 7]: 100%

IC50 ([2]; compound 0-200 μM, high (30 mM) glucose): 4.9 µM | Reactivity to equimolar H2O2, OH radical and peroxynitrite [5]: unreactive
SMILES: O=Cc1ccc2n1C[C@]1(C[C@H](O)[C@@H](CO)O1)OC2 [acortatarin A (1), acortatarin A]
First oxidation potential [4]: +1.74 V | Second oxidation potential [4]: 1.90 V | Antioxidant activity as reported (in words) [3]: complete inhibition of ROS induction at higher concentrations | Antioxidant activity as reported (in words) ([3]; listed as Acortatarin A): significantly attenuating high glucose-induced generation of ROS | IC50 ([3]; rat mesangial cell model, intracellular ROS levels, read-out: IC50 against hyperglycemia-induced oxidative stress, as recently reported): 4.9 µM | Block of the direct effect of exogenous H2O2 on ROS levels [1]: does not block | Maximum % ROS Inhibition ([2]; compound 0-200 μM, high (30 mM) glucose, N-acetyl-cysteine at 1 mM, ***p ≤ 0.001): 100%*** | Antioxidant activity against hyperglycemia-induced ROS generation (in words) [2]: complete inhibition of ROS induction at higher concentrations | Concentration required for complete inhibition (ROS production reduced to normal levels) [2]: 20 µM | Effect on high glucose-induced extracellular matrix production [6]: prevent

SMILES: O=Cc1cccc2c1C[C@]1(C[C@H](O)[C@@H](CO)O1)OC2 [formylbenzene 8, (2S,4S,5R)-4-hydroxy-5-(hydroxymethyl)-4,5-dihydro-3H-spiro[furan-2,3′-isochromane]-5′-carbaldehyde]
inhibition [2, 7]: 100%
